Patent publication US11180474B2 (BRISTOL-MYERS SQUIBB COMPANY, priority 2016, dated 2021)
pIC50: −log10 of the molar value.

Columns and labels:
[1] = target: T1, human TLR7 (Homo sapiens, UniProt Q9NYK1); test: TLR7 inhibition reporter assay (HEK-Blue cells, SEAP reporter, gardiquimod stimulation); format: cell-based; conditions: HEK-Blue cells overexpressing human TLR7, gardiquimod 7.5 μM
T1 construct: host or cells: HEK-Blue cells
T1 sequence (Q9NYK1 27-1049): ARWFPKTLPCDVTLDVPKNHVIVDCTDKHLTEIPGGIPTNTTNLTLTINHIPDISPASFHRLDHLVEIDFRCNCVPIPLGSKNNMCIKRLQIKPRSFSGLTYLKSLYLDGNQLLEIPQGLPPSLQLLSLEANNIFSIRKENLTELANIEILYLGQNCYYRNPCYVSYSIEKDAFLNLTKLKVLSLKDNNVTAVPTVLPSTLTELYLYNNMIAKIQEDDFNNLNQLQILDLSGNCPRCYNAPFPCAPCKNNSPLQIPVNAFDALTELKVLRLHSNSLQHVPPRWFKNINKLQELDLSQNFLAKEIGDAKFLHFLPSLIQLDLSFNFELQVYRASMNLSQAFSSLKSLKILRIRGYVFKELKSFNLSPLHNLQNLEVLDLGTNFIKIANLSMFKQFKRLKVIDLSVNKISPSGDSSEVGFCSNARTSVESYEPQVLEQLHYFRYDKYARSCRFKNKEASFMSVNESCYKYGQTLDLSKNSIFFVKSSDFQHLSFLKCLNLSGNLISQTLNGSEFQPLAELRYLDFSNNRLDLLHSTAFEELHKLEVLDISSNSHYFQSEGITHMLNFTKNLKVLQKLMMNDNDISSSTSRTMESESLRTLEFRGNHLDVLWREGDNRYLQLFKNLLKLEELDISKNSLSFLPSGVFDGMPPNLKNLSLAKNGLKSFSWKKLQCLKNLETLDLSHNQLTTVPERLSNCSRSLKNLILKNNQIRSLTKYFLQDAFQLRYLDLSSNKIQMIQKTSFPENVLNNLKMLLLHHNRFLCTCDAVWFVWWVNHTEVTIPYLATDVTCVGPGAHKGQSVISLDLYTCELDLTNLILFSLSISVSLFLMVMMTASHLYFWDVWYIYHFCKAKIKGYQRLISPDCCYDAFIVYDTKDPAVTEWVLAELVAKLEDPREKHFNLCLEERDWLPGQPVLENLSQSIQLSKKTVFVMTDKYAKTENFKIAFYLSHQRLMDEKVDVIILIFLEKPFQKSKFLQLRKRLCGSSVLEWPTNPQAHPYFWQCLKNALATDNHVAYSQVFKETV
Procedure, shortened: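 Dose-response testing from 0.05 nM to 50 μM final was done on reporter cells for 22 hours at 37° C. Secreted SEAP was then detected, and inhibition was calculated as percent reduction of the agonist-plus-DMSO signal compared with wells given a known inhibitor.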

[2] = target: T2, human TLR9 (Homo sapiens, UniProt Q9NR96); test: TLR9 inhibition reporter assay (HEK-Blue cells, SEAP reporter, ODN2006 stimulation); format: cell-based; conditions: HEK-Blue cells overexpressing human TLR9, ODN2006 5 nM
T2 construct: host or cells: HEK-Blue cells
T2 sequence (Q9NR96 26-1032): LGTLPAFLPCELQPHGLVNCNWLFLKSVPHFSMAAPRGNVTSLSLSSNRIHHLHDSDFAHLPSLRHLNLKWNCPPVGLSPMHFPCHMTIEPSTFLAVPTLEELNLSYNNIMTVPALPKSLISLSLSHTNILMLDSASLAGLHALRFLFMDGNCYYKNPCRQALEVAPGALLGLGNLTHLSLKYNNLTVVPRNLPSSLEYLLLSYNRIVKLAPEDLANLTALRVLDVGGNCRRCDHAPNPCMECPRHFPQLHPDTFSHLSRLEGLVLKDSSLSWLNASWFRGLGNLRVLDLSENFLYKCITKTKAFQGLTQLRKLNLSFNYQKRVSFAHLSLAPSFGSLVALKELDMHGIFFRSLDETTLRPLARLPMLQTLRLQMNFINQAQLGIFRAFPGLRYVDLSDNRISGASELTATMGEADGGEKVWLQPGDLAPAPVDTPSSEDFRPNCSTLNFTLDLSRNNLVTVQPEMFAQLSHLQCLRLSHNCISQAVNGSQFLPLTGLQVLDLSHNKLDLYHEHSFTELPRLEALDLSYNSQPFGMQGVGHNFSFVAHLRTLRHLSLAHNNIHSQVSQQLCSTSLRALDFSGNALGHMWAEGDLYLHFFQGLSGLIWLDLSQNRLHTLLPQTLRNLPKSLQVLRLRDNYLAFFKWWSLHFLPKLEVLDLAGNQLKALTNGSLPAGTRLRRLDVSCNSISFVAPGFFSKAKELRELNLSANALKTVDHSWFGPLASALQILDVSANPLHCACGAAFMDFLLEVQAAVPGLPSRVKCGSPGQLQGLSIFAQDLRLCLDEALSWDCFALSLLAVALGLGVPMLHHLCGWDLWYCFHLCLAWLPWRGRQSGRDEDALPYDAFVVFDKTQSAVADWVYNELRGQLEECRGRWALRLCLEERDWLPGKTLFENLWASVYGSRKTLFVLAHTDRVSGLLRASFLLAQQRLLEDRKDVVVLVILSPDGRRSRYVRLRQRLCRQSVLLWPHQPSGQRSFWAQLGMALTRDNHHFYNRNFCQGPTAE
Procedure, shortened: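 Screening used HEK-Blue cells overexpressing one human TLR (7, 8 or 9) and an IFN-β minimal promoter–NF-κB/AP-1 SEAP construct. Stimulation lasted 22 h at 37 °C with receptor-specific agonist: gardiquimod, R848 or ODN2006 at 7.5 μM, 15.9 μM and 5 nM.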

| SMILES | pIC50 [1] | pIC50 [2] |
| --- | --- | --- |
| COc1ccc(-c2[nH]c3ccc(C4CCN(C(=O)CCN(C)C)CC4)cc3c2CC(F)(F)F)cc1OC [Example 340, 1-(4-(2-(3,4-dimethoxyphenyl)-3-(2,2,2-trifluoroethyl)-1H-indol-5-yl)piperidin-1-yl)-3-(dimethylamino)propan-1-one] | 7.66 | 6.04 |
| COc1ccc(-c2[nH]c3ccc(C4CCN(C(=O)Cc5nnn[nH]5)CC4)cc3c2CC(F)(F)F)cc1OC [Example 341, 1-(4-(2-(3,4-dimethoxyphenyl)-3-(2,2,2-trifluoroethyl)-1H-indol-5-yl)piperidin-1-yl)-2-(1H-tetrazol-5-yl)ethan-1-one] | 5.30 | ≤ 4.30 |
| COc1ccc(-c2[nH]c3ccc(C4CCN(C(=O)Cc5cnccn5)CC4)cc3c2CC(F)(F)F)cc1OC [Example 342, 1-(4-(2-(3,4-dimethoxyphenyl)-3-(2,2,2-trifluoroethyl)-1H-indol-5-yl)piperidin-1-yl)-2-(pyrazin-2-yl)ethan-1-one] | 6.62 | 4.58 |
| COc1ccc(-c2[nH]c3ccc(C4CCN(C(=O)CCn5cccc5)CC4)cc3c2CC(F)(F)F)cc1OC [Example 344, 1-(4-(2-(3,4-dimethoxyphenyl)-3-(2,2,2-trifluoroethyl)-1H-indol-5-yl)piperidin-1-yl)-3-(1H-pyrrol-1-yl)propan-1-one] | 6.06 | ≤ 4.30 |
| COc1ccc(-c2[nH]c3ccc(C4CCN(C(=O)CCC(=O)N(C)C)CC4)cc3c2CC(F)(F)F)cc1OC [Example 346, 4-(4-(2-(3,4-dimethoxyphenyl)-3-(2,2,2-trifluoroethyl)-1H-indol-5-yl)piperidin-1-yl)-N,N-dimethyl-4-oxobutanamide] | 6.67 | 5.53 |
| COc1ccc(-c2[nH]c3ccc(C4CCN(C(=O)CCC(F)(F)F)CC4)cc3c2CC(F)(F)F)cc1OC [Example 350, 1-(4-(2-(3,4-dimethoxyphenyl)-3-(2,2,2-trifluoroethyl)-1H-indol-5-yl)piperidin-1-yl)-4,4,4-trifluorobutan-1-one] | 6.20 | ≤ 4.30 |
| COc1ccc(-c2[nH]c3ccc(C4CCN(C(=O)CCCN(C)C)CC4)cc3c2CC(F)(F)F)cc1OC [Example 351, 1-(4-(2-(3,4-dimethoxyphenyl)-3-(2,2,2-trifluoroethyl)-1H-indol-5-yl)piperidin-1-yl)-4-(dimethylamino)butan-1-one] | 7.77 | 5.81 |
| COc1ccc(-c2[nH]c3ccc(C4CCN(C(=O)C[C@@H](C)O)CC4)cc3c2CC(F)(F)F)cc1OC [Example 353, (R)-1-(4-(2-(3,4-dimethoxyphenyl)-3-(2,2,2-trifluoroethyl)-1H-indol-5-yl)piperidin-1-yl)-3-hydroxybutan-1-one] | 6.64 | 4.40 |
| COc1ccc(-c2[nH]c3ccc(C4CCN(C(=O)CN(C)C)CC4)cc3c2CC(F)(F)F)cc1OC [Example 354, 1-(4-(2-(3,4-dimethoxyphenyl)-3-(2,2,2-trifluoroethyl)-1H-indol-5-yl)piperidin-1-yl)-2-(dimethylamino)ethan-1-one] | 7.66 | 5.67 |
| CCNC(=O)N1CCC(c2ccc3[nH]c(-c4ccc(OC)c(OC)c4)c(CC(F)(F)F)c3c2)CC1 [Example 356, 4-(2-(3,4-dimethoxyphenyl)-3-(2,2,2-trifluoroethyl)-1H-indol-5-yl)-N-ethylpiperidine-1-carboxamide] | 6.21 | ≤ 4.30 |
| COc1ccc(-c2[nH]c3ccc(C4CCN(C(=O)NCCc5ccccc5)CC4)cc3c2CC(F)(F)F)cc1OC [Example 357, 4-(2-(3,4-dimethoxyphenyl)-3-(2,2,2-trifluoroethyl)-1H-indol-5-yl)-N-phenethylpiperidine-1-carboxamide] | 6.16 | ≤ 4.30 |

The next lines start with the values.

| pIC50 [1] | pIC50 [2] | SMILES |
| --- | --- | --- |
| 6.76 | 4.39 | COc1ccc(-c2[nH]c3ccc(C4CCN(C(=O)CCCNC(C)=O)CC4)cc3c2CC(F)(F)F)cc1OC [Example 343, N-(4-(4-(2-(3,4-dimethoxyphenyl)-3-(2,2,2-trifluoroethyl)-1H-indol-5-yl)piperidin-1-yl)-4-oxobutyl)acetamide] |
| 6.59 | 4.60 | COc1ccc(-c2[nH]c3ccc(C4CCN(C(=O)C5CCN(C(C)=O)CC5)CC4)cc3c2CC(F)(F)F)cc1OC [Example 345, 1-(4-(4-(2-(3,4-dimethoxyphenyl)-3-(2,2,2-trifluoroethyl)-1H-indol-5-yl)piperidine-1-carbonyl)piperidin-1-yl)ethan-1-one] |
| 6.81 | 4.41 | COc1ccc(-c2[nH]c3ccc(C4CCN(C(=O)CS(C)(=O)=O)CC4)cc3c2CC(F)(F)F)cc1OC [Example 347, 1-(4-(2-(3,4-dimethoxyphenyl)-3-(2,2,2-trifluoroethyl)-1H-indol-5-yl)piperidin-1-yl)-2-(methylsulfonyl)ethan-1-one] |
| 6.38 | 4.81 | COc1ccc(-c2[nH]c3ccc(C4CCN(C(=O)CCc5cccnc5)CC4)cc3c2CC(F)(F)F)cc1OC [Example 348, 1-(4-(2-(3,4-dimethoxyphenyl)-3-(2,2,2-trifluoroethyl)-1H-indol-5-yl)piperidin-1-yl)-3-(pyridin-3-yl) propan-1-one] |
| 6.54 | 5.01 | COc1ccc(-c2[nH]c3ccc(C4CCN(C(=O)COc5cccnc5)CC4)cc3c2CC(F)(F)F)cc1OC [Example 349, 1-(4-(2-(3,4-dimethoxyphenyl)-3-(2,2,2-trifluoroethyl)-1H-indol-5-yl)piperidin-1-yl)-2-(pyridin-3-yloxy)ethan-1-one] |
| 6.34 | 4.54 | COc1ccc(-c2[nH]c3ccc(C4CCN(C(=O)C[C@H](C)O)CC4)cc3c2CC(F)(F)F)cc1OC [Example 352, (S)-1-(4-(2-(3,4-dimethoxyphenyl)-3-(2,2,2-trifluoroethyl)-1H-indol-5-yl)piperidin-1-yl)-3-hydroxybutan-1-one] |
| 7.72 | 5.64 | COc1ccc(-c2[nH]c3ccc(C4CCN(C)CC4)cc3c2CC(F)(F)F)cc1OC [Example 355, 2-(3,4-dimethoxyphenyl)-5-(1-methylpiperidin-4-yl)-3-(2,2,2-trifluoroethyl)-1H-indole] |
| ≤ 4.30 | ≤ 4.30 | COc1ccc(-c2[nH]c3ccc(C4CCN(C(=O)NCc5ccco5)CC4)cc3c2CC(F)(F)F)cc1OC [Example 358, 4-(2-(3,4-dimethoxyphenyl)-3-(2,2,2-trifluoroethyl)-1H-indol-5-yl)-N-(furan-2-ylmethyl)piperidine-1-carboxamide] |
